Test results as given in patent US9617267B2, “Compounds and methods for kinase modulation, and indications therefor” (Plexxikon Inc., priority 2009, dated 2017).
Read-outs that look alike come from different tables or passages of the source.

Tests used:
[1] = biological target: CYP1A2 (Homo sapiens (Human), UniProt P05177); test: CYP enzyme inhibition, fluorescent substrate (CEC)
Method in brief: (§1)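 IC50 derived from loss of fluorescent metabolite across a 10-point 1:1 dilution series. CYP2D6: 1.5 pmol enzyme, 1.5 μM AMMC, 30 min at 37 °C, 409/530 nm; CYP1A2: 0.5 pmol, 5 μM CEC, 15 min, 409/460 nm. Compounds pre-incubated 10 min in NADPH-regenerating mix.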

[2] = biological target: CYP2C19 (Homo sapiens (Human), UniProt P33261); test: CYP enzyme inhibition, fluorescent substrate (CEC); conditions: read-out: Cyp IC50 2C19; CYP2C19, substrate CEC
CYP2C19, sequence (P33261 whole entry): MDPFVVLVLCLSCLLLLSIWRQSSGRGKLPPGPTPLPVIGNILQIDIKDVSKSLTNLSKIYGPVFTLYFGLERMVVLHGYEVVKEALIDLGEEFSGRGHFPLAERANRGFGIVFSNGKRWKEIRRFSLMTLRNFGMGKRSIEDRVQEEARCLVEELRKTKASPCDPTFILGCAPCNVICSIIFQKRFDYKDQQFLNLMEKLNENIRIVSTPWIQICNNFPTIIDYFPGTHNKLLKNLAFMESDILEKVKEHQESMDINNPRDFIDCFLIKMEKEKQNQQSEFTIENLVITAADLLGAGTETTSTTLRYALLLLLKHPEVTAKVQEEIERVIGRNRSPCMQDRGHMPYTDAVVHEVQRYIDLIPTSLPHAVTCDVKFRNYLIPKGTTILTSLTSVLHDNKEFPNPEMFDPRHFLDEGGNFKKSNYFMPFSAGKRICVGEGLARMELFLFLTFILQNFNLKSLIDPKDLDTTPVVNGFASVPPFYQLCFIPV
Method in brief: (§2)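 10-pt 1:1 serial dilution in co-factor mix (DMSO stock 100 mM); 10 min preincubation, 37 °C; reaction at 37 °C. Readout: fluorescent metabolite of probe substrate. IC50 from signal vs [compound].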

[3] = biological target: CYP3A4(BQ) (Homo sapiens (Human), UniProt P08684); test: CYP enzyme inhibition, fluorescent substrate BQ
CYP3A4(BQ), sequence (P08684 whole entry): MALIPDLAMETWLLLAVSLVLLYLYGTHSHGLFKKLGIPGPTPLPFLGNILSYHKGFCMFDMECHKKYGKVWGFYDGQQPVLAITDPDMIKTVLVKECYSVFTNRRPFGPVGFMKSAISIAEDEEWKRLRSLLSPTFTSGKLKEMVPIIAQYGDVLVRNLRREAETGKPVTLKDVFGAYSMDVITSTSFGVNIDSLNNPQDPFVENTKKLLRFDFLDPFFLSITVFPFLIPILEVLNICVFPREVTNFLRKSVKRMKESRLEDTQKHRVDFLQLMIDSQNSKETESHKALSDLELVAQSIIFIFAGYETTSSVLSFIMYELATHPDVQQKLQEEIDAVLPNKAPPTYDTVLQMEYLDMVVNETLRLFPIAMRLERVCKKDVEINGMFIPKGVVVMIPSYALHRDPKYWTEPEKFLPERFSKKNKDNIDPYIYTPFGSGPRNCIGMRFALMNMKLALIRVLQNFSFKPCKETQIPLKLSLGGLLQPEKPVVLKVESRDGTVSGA
Method: CYP (Cytochrome P450) enzymes are the major drug metabolizing enzymes present in the liver. The inhibition of CYP enzyme activity (IC50) for each of CYP1A2, CYP2C19, CYP2C9, CYP2D6, CYP3A4(BFC) and CYP3A4(BQ) is determined for compounds, where inhibition of metabolism of a known substrate leads to a decrease in the fluorescence of the metabolized product. The fluorescence of the product is monitored as a function of compound concentration.
Compounds are dissolved in dimethyl sulfoxide to a concentration of 100 mM. These are diluted 1 μL into 82 μL of acetonitrile. […] These are then serially diluted 1:1 (160 μL to 160 μL co-factor mix) for a total of 10 points. A 10 μL aliquot of this final mixture is dispensed into 384 well assay plates and incubated for 10 minutes at 37° C. […] Assay plates are incubated at 37° C. […] The signal versus compound concentration is used to determine the IC50. The enzymes and substrates for this assay are obtained from BD Biosciences.

[4] = biological target: CYP3A4(BFC) (Homo sapiens (Human), UniProt P08684); test: CYP enzyme inhibition, fluorescent substrate BFC; conditions: read-out: Cyp IC50 3A4(BFC); CYP3A4, substrate BFC
CYP3A4(BFC), sequence (P08684 whole entry): as above
Method in brief: as §2

[5] = Relative solubility by turbidity threshold concentration in aqueous buffers (pH 1.5, 4.5, 6.8, 7.4); type: physicochemical; conditions: for turbidity threshold (L, M, H) 1.4: pH 1.4 [sic] (method: SGF pH 1.5); for turbidity threshold (L, M, H) 4.5: pH 4.5 (SIF); for turbidity threshold (L, M, H) 6.8: pH 6.8 (SIF); for turbidity threshold (L, M, H) 7.4: pH 7.4 (HEPES)
Method in brief: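 Solubility class (high >250 μM, moderate 31.3–250 μM, low <31.3 μM) comes from the concentration where absorbance reaches a 0.01 threshold, averaged across 490/535/650 nm. Samples were compound dilutions from DMSO stock, 1 μL into 99 μL buffer at pH 1.5, 4.5, 6.8 or 7.4.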

[6] = biological target: CYP2C9 (Homo sapiens (Human), UniProt P11712); test: CYP enzyme inhibition, fluorescent substrate (MFC); conditions: read-out: Cyp IC50 2C9; CYP2C9, substrate MFC
CYP2C9, sequence (P11712 whole entry): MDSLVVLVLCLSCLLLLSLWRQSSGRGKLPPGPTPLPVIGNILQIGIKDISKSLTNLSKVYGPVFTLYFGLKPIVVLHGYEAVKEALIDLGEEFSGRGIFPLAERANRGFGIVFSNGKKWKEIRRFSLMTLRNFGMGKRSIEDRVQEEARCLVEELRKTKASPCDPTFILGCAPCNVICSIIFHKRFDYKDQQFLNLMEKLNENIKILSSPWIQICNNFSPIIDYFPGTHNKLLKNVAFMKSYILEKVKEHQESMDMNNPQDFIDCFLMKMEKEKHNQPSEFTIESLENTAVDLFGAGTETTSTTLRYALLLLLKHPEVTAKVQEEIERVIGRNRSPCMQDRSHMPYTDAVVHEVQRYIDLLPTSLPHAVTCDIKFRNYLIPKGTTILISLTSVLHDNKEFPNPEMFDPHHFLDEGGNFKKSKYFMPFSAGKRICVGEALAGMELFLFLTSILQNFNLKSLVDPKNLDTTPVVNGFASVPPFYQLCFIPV
Method in brief: as §2

[7] = biological target: CYP2D6 (Homo sapiens (Human), UniProt P10635); test: CYP enzyme inhibition, fluorescent substrate (AMMC); type: in vitro ADME; conditions: read-out: Cyp IC50 2D6
CYP2D6, sequence (P10635 whole entry): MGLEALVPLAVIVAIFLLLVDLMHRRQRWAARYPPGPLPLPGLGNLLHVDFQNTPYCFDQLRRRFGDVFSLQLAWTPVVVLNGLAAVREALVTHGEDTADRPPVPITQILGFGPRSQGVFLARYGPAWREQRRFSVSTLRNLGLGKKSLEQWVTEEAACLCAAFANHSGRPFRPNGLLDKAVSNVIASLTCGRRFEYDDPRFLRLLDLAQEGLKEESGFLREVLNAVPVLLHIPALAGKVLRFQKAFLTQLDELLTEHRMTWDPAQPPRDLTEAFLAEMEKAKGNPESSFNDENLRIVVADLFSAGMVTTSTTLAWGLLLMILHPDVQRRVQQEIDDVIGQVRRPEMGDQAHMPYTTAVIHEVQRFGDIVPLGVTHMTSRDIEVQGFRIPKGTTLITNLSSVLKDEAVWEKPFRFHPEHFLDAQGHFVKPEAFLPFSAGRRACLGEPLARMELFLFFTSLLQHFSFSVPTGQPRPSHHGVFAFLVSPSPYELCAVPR
Method in brief: as §1

[8] = read-out: Cyp IC50 3A4(BQ), CYP3A4, substrate BQ

CYP1A2, sequence (P05177 whole entry): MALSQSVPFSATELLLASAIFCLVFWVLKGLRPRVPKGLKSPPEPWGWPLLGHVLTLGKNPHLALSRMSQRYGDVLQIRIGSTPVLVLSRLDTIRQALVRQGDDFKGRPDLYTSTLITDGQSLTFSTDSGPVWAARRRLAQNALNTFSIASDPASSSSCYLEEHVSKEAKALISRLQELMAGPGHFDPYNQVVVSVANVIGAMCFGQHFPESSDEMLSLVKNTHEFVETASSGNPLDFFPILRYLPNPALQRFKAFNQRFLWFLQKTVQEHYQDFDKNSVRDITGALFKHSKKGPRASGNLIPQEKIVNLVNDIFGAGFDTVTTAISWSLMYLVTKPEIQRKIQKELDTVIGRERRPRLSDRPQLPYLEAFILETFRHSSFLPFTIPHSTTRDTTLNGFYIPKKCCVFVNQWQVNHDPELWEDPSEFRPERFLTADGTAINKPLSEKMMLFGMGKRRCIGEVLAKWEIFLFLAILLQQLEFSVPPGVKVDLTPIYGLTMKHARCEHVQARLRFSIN

Row | SMILES | IC50 ([1]; human, 15 min) [µM] | IC50 [2] [µM] | IC50 [3, 8] [µM] | IC50 [4] [µM] | turbidity threshold (L, M, H) 1.4 [5] | turbidity threshold (L, M, H) 4.5 [5] | turbidity threshold (L, M, H) 6.8 [5] | turbidity threshold (L, M, H) 7.4 [5] | IC50 [6] [µM] | IC50 [7] [µM] | IC50 [3] [µM] | IC50 ([1]; read-out: Cyp IC50 1A2, CYP1A2, substrate CEC) [µM]
1 | CCCS(=O)(=O)Nc1ccc(F)c(C(=O)c2c[nH]c3ncnc(Nc4ccccn4)c23)c1F [P-1077, Propane-1-sulfonic acid {2,4-difluoro-3-[4-(pyridin-2-ylamino)-7H-pyrrolo[2,3-d]pyrimidine-5-carbonyl]-phenyl}-amide] | > 10 | > 10 | > 10 | > 10 | H (high solubility if the threshold concentration is >250 μm) | L (low solubility if the threshold concentration is <31.3 μM) | L (low solubility if the threshold concentration is <31.3 μM) | L (low solubility if the threshold concentration is <31.3 μM) | > 10 | > 10 |  | 
2 | CCCS(=O)(=O)Nc1ccc(F)c(C(=O)c2c[nH]c3ncnc(Nc4cccnc4)c23)c1F [P-1078, Propane-1-sulfonic acid {2,4-difluoro-3-[4-(pyridin-3-ylamino)-7H-pyrrolo[2,3-d]pyrimidine-5-carbonyl]-phenyl}-amide] | > 10 | > 10 |  | > 10 | M (moderate solubility if the threshold concentration is 31.3 μM to 250 μM) | L (low solubility if the threshold concentration is <31.3 μM) | L (low solubility if the threshold concentration is <31.3 μM) | L (low solubility if the threshold concentration is <31.3 μM) | < 5 | > 10 | 5 to 10 | 
3 | CCCS(=O)(=O)Nc1ccc(F)c(C(=O)c2c[nH]c3ncnc(NCC4CC4)c23)c1F [P-1079, Propane-1-sulfonic acid {3-[4-(cyclopropylmethyl-amino)-7H-pyrrolo[2,3-d]pyrimidine-5-carbonyl]-2,4-difluoro-phenyl}-amide] | > 10 | > 10 | > 10 | > 10 | M (moderate solubility if the threshold concentration is 31.3 μM to 250 μM) | L (low solubility if the threshold concentration is <31.3 μM) | L (low solubility if the threshold concentration is <31.3 μM) | L (low solubility if the threshold concentration is <31.3 μM) | > 10 | > 10 |  | 
4 | CCCS(=O)(=O)Nc1ccc(F)c(C(=O)c2c[nH]c3ncnc(NC4CCCC4)c23)c1F [P-1081, Propane-1-sulfonic acid [3-(4-cyclopentylamino-7H-pyrrolo[2,3-d]pyrimidine-5-carbonyl)-2,4-difluoro-phenyl]-amide] | > 10 | > 10 | > 10 | > 10 | H (high solubility if the threshold concentration is >250 μm) | L (low solubility if the threshold concentration is <31.3 μM) | L (low solubility if the threshold concentration is <31.3 μM) | L (low solubility if the threshold concentration is <31.3 μM) | > 10 | > 10 |  | 
5 | CCCS(=O)(=O)Nc1ccc(F)c(C(=O)c2c[nH]c3ncnc(Nc4cn(C)nc4C)c23)c1F [P-1100, Propane-1-sulfonic acid {3-[4-(1,3-dimethyl-1H-pyrazol-4-ylamino)-7H-pyrrolo[2,3-d]pyrimidine-5-carbonyl]-2,4-difluoro-phenyl}-amide] |  | > 10 | > 10 | > 10 | M (moderate solubility if the threshold concentration is 31.3 μM to 250 μM) | M (moderate solubility if the threshold concentration is 31.3 μM to 250 μM) | L (low solubility if the threshold concentration is <31.3 μM) | L (low solubility if the threshold concentration is <31.3 μM) | > 10 | > 10 |  | > 10
